Test results: ChEMBL document CHEMBL1201862, “PubChem BioAssay data set” (2004)
The source made the active and inactive calls.

How the values were obtained:
Prothrombin = Prothrombin (Homo sapiens, UniProt P00734); assay: Thrombin 1536 HTS Dose Response Confirmation. [Related pubchem assays: 1046 (Thrombin 1536 HTS; hits were confirmed in this assay)]; assay type: functional
[1] = Luminescence Cell-Based Dose Retest to Confirm Inhibitors of Cancer Stem Cells. [Related pubchem assays (depositor defined):AID2717, AID2721]; assay type: functional; conditions: Homo sapiens
[2] = Luminescence Cell-Based Dose Response to Identify Activators of 5'UTR Stem-Loop Driven Prion Protein mRNA Translation in H4-C Neuroglioblastoma Cells. [Related pubchem assays: 1829 (Project Summary), 1814 (Primary HTS)]; assay type: functional
[3] = Luminescence Cell-Based Dose Confirmation HTS to Identify Activators of 5'UTR Stem-Loop Driven Alpha-Synuclein mRNA Translation in H4 Neuroglioblastoma Cells. [Related pubchem assays: 1829 (Project Summary), 1814 (Primary HTS)]; assay type: functional
[4] = Luminescence Cell-Based Dose Response HTS to Identify Activators of Luciferase Translation or Activity in H4 […] Cells. [Related pubchem assays: 1829 (Project Summary), 1814 (Primary HTS)]; assay type: functional
H4 = assay: Luminescence Cell-Based Dose Response HTS to Identify Activators of 5'UTR Stem-Loop Driven Prion Protein mRNA Translation in H4 Neuroglioblastoma Cells. [Related pubchem assays: 1829 (Project Summary), 1814 (Primary HTS)]; assay type: functional; conditions: Homo sapiens
[5] = Luminescence Cell-Based Dose Response to Identify Activators of Luciferase Translation or Activity in H4-C Neuroglioblastoma Cells. [Related pubchem assays: 1829 (Project Summary), 1814 (Primary HTS)]; assay type: functional
[6] = Luminescence Cell-Based Dose Confirmation to Identify Activators of 5'UTR Stem-Loop Driven Alpha-Synuclein mRNA Translation in H4 Neuroglioblastoma Cells. [Related pubchem assays: 1829 (Project Summary), 1814 (Primary HTS)]; assay type: functional
[7] = growth inhibition of yeast DHODH-expressing 3D7 parasites – SYBR Green, dry powder samples, dose response (AID 1159570); assay type: functional, cell-based;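 further: parasite growth measured after 72 hours of compound exposure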
[8] = toxicity to human HepG2 hepatoma cells – cell-based, plate reader, dry powder samples, cytotoxicity control, dose response (AID 1159569); assay type: functional;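 further: inhibitor potency with signal falling toward the positive control level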
[9] = P. falciparum Dd2 growth inhibitors, dose response, SYBR Green, cherry-picked samples (AID 1159567); assay type: functional, cell-based
[10] = Dd2 malaria parasite growth inhibition potency – SYBR Green, dry powder samples, dose response (AID 1159566); assay type: functional, cell-based;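 further: potency for growth inhibition with lower SYBR green DNA signal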
[11] = growth inhibition of PfATP4-mutant resistant parasites – NITD609-resistant line, SYBR Green, dry powder, dose response (AID 1159571); assay type: functional, cell-based;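 further: parasites synchronized at ring stage by sorbitol before testing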
[12] = Dd2 parasite growth inhibition in erythrocytes – SYBR Green, dry powder samples, set 9, dose response (AID 1159568); assay type: functional, cell-based
[13] = toxicity toward HepG2 liver cells – cell-based, plate reader, cherry-pick, antagonist series, cytotoxicity control, dose response (AID 743416); assay type: functional
[14] = blockers of bursicon-stimulated LGR2 cAMP reporter – cell-based, HEK293, CRE-luciferase reporter, cherry pick, set 2, dose response (AID 743343); assay type: functional;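 further: transfected cells were stimulated with diluted bursicon conditioned medium after compound addition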
[15] = blockade of melanocortin 4 receptor signaling – cell-based, plate reader, cherry pick, counter-screen for LGR2 antagonist project, dose response (AID 743444); assay type: functional;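 further: transfected HEK 293 cells stimulated with alpha-MSH peptide; potency of inhibitors of the alpha-MSH evoked signal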

For `Cc1nn(Cc2ccc(C(=O)Nc3nccs3)cc2)c(C)c1Cl`, the IC50 (Prothrombin) was > 50000 nM (not active) and the AC50 [1] was 747 nM (active).
In the case of `CC(NC(=O)Nc1ccc2c(c1)OCO2)C1CCCO1` (centres undefined), the EC50 [2] is reported as > 12000 nM (not active), the EC50 [3] is reported as < 100 nM (active) and the EC50 [4] is reported as 8120 nM (active). For the same molecule, the EC50 (H4) was 33000 nM (active), the EC50 [5] was > 12000 nM (not active) and the EC50 [6] was > 12000 nM (not active).
With `Nc1cccc2c1C(=O)N(C(=O)c1ccco1)C2=O` the IC50 (Prothrombin) was 8620 nM (active).
In the case of `CC1=C(C#N)C(=O)N(C)C(=O)/C1=N/Nc1ccc(S(N)(=O)=O)cc1`, the IC50 (Prothrombin) is reported as > 50000 nM (not active).
In the case of `CCCC#Cc1ccc2c(c1)[C@H]1[C@H](CCN1Cc1ccccc1F)[C@@H](CO)N2`, the AC50 [7] is reported as 5850 nM (active), the AC50 [8] is reported as 71500 nM (active) and the AC50 [9] is reported as 2780 nM (active). The AC50 [10] was 2390 nM (active) and the AC50 [11] was 2370 nM (active).
With `CO[C@@H]1CN(C)C(=O)c2ccc(NC(=O)c3nc4ccccc4s3)cc2OC[C@@H](C)N(Cc2ccccc2)C[C@H]1C` the AC50 [7] was 1750 nM (active), the AC50 [8] was > 100000 nM (inactive) and the AC50 [9] was 1120 nM (active). For the same molecule, the AC50 [10] was 829 nM (active) and the AC50 [11] was 1080 nM (active).
For `O=C(Nc1cccc(F)c1)N1CCCCN2[C@H](CO)[C@H](c3ccc(C#Cc4ccccc4)cc3)[C@@H]2C1`, the AC50 [7] was 38.3 nM (active), the AC50 [8] was > 100000 nM (inactive) and the AC50 [9] was < 300 nM (active). The AC50 [10] was 43.7 nM (active) and the AC50 [11] was 55.7 nM (active).
In the case of `CC(=O)c1c(C)[nH]c(C(=O)NCCC2=CCCCC2)c1C`, the EC50 [2] is reported as 862 nM (active), the EC50 [4] is reported as < 100 nM (inconclusive) and the EC50 (H4) is reported as 12300 nM (active). The EC50 [5] was > 12000 nM (not active) and the EC50 [6] was 468 nM (active).
In the case of `O=C(/N=C1\SCC(=O)N1c1ccccc1Cl)c1ccccc1`, the EC50 [2] is reported as 1860 nM (active), the EC50 [3] is reported as < 100 nM (active) and the EC50 [4] is reported as 11100 nM (active). For the same molecule, the EC50 (H4) was 50500 nM (active), the EC50 [5] was > 12000 nM (not active) and the EC50 [6] was 717 nM (active).
With `Cc1c(N(C)C(=O)C2CCCN2S(=O)(=O)c2ccccc2)c(=O)n(-c2ccccc2)n1C` (centres undefined) the IC50 (Prothrombin) was > 50000 nM (not active).
With `CC(Sc1nncn1C)C(=O)NCc1ccc2c(c1)OCO2` (centres undefined) the IC50 (Prothrombin) was > 50000 nM (not active).
For `COc1ccc(S(=O)(=O)N2CCC3(CC2)CN(Cc2ccncc2)[C@H](CO)c2[nH]c4cc(OC)ccc4c23)cc1`, the AC50 [7] was 2140 nM (active), the AC50 [8] was 28500 nM (active) and the AC50 [9] was 1890 nM (active). The AC50 [10] was 1720 nM (active) and the AC50 [11] was 2220 nM (active).
For `COc1ccc(C(=O)n2nc(-c3ccco3)nc2N)cc1OC`, the IC50 (Prothrombin) was 2230 nM (active).
With `O=C(Cc1ccccc1)N1CC(=O)N2[C@H](CO)[C@H](c3ccc(C#CCc4ccccc4)cc3)[C@H]2C1` the AC50 [7] was 1730 nM (active), the AC50 [8] was 22500 nM (active) and the AC50 [12] was 354 nM (active). For the same molecule, the AC50 [9] was 918 nM (active), the AC50 [10] was 358 nM (active) and the AC50 [11] was 1180 nM (active).
With `O=C1OC(c2ccccc2)=C/C1=C/N1CCCCC1` the EC50 [2] was 426 nM (active), the EC50 [3] was < 100 nM (active) and the EC50 [4] was 129 nM (inconclusive). For the same molecule, the EC50 (H4) was 142 nM (active), the EC50 [5] was 352 nM (active) and the EC50 [6] was 306 nM (active).
In the case of `COCCn1c(C)cc(C(=O)COC(=O)c2ccc3ncsc3c2)c1C`, the EC50 [2] is reported as 1090 nM (active), the EC50 [4] is reported as 155 nM (active) and the EC50 (H4) is reported as 132 nM (active). For the same molecule, the EC50 [5] was 343 nM (active) and the EC50 [6] was 364 nM (active).
With `Cc1csc(NC(=O)c2cnc3ccccc3n2)n1` the AC50 [13] was > 52000 nM (inactive), the AC50 [14] was 7510 nM (active) and the AC50 [15] was 16900 nM (active).
For `Cc1cc(C(=O)CSc2n[nH]c(N)n2)c(C)n1-c1ccccc1`, the EC50 [2] was 1030 nM (active), the EC50 [4] was < 100 nM (active) and the EC50 (H4) was 5580 nM (active). The EC50 [5] was 687 nM (active) and the EC50 [6] was 6750 nM (active).
